Data as given in article PMC5550493, “The Conserved Lysine-265 Allosterically Modulates Nucleotide- and Actin-binding Site Coupling in Myosin-2” (Scientific Reports, 2017).

Legend:
[1] = biological target: T1, actomyosin (Dd myosin-2 M765-2R with F-actin) (Dictyostelium discoideum, UniProt P08799); test: stopped-flow light scattering, ADP inhibition of ATP-induced actomyosin dissociation; format: binding; conditions: read-out: Dd myosin-2 (M765-2R construct) / WT
T1 construct: gene mhcA; M765-2R: mhcA 1-765 fused to Dd alpha-actinin repeats (codons 264-505), C-terminal Asp-Ala-Leu-(His)8 tag kept, expressed in D. discoideum AX3-Orf+; in complex with F-actin purified from rabbit skeletal muscle; with Actin, alpha skeletal muscle (Oryctolagus cuniculus)
Source text: stopped-flow light scattering, ADP inhibition of ATP-induced actomyosin dissociation on actomyosin (Dd myosin-2 M765-2R with F-actin)

[2] = biological target: T1, actomyosin (Dd myosin-2 M765-2R with F-actin); test: NADH-coupled actin-activated ATPase assay; format: biochemical; conditions: 20 µM F-actin, 1 mM ATP, 5% DMSO, 25 mM HEPES pH 7.3, 25 mM KCl, 5 mM MgCl2, 25 °C; allosteric

T1 sequence (P08799 whole entry, looked up, the tested form may be a part): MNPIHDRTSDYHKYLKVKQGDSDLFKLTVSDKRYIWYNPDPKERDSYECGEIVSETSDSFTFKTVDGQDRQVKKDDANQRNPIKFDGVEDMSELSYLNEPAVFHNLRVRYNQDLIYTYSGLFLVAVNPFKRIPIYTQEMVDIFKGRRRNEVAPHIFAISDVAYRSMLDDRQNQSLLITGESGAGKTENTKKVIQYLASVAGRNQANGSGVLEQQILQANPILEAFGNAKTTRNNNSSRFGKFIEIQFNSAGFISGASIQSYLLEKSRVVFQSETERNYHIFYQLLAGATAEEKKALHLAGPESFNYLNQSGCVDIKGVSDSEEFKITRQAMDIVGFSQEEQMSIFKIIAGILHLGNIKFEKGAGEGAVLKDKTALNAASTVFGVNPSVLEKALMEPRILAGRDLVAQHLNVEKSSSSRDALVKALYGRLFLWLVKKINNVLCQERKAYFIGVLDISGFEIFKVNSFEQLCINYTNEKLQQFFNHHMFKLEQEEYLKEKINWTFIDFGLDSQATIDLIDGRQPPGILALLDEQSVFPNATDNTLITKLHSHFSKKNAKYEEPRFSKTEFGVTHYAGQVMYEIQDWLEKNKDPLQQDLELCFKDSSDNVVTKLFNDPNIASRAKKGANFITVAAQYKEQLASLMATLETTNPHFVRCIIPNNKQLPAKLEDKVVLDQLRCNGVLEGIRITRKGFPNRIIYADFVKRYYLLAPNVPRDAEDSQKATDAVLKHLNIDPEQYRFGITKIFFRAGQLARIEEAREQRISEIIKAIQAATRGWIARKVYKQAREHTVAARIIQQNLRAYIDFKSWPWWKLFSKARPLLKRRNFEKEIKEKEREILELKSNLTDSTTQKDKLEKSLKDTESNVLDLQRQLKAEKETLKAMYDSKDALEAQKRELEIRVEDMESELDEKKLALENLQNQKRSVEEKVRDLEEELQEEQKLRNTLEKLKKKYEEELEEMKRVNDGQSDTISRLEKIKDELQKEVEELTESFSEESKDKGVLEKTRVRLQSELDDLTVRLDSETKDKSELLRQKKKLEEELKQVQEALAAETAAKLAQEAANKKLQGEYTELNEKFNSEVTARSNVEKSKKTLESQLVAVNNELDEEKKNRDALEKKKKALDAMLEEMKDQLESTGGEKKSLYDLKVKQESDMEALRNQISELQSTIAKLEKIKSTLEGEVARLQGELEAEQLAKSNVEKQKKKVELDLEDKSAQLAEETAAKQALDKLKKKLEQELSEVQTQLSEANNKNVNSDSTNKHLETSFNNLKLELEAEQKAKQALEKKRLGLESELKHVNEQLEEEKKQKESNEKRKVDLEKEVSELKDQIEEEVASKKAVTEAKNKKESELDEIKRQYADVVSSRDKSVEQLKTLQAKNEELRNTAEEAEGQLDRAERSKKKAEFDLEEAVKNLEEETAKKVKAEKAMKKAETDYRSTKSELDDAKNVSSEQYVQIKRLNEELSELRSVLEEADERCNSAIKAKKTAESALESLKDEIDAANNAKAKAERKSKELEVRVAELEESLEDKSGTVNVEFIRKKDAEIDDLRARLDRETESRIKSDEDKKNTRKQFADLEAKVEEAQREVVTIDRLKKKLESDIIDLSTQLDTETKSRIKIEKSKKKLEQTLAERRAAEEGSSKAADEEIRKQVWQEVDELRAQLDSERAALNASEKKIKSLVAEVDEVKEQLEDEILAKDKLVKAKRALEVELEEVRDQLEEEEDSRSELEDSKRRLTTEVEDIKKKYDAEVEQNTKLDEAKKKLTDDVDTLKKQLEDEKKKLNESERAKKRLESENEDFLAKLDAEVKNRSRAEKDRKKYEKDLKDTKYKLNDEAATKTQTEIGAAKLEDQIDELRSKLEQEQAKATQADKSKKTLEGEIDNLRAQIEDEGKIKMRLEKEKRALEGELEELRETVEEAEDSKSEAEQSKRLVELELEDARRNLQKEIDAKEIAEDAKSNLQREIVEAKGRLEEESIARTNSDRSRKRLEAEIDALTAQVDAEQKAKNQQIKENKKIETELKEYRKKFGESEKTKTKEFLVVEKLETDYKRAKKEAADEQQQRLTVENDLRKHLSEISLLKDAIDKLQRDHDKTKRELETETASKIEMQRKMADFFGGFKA

Nc1ncnc2c1ncn2[C@@H]1O[C@H](COP(=O)(O)OP(=O)(O)O)[C@@H](O)[C@H]1O [ADP]
Kd [1]: 73.3 ± 7 µM

Oc1c(Br)cc(Br)cc1-c1[nH]c(Br)c(Br)c1Br [pentabromopseudilin]
n-fold inhibition at 100 μM PBP [2]: 7 fold
